Data set [1] has as its target T1, IAPP (Fluos-IAPP, mostly monomers) (Homo sapiens, UniProt P10997).
T1 construct: made in house; host or cells: chemical synthesis
T1 sequence (P10997 34-70 limits assumed): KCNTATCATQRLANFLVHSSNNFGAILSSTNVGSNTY
Put plainly: Fluorescence spectroscopic titration of Fluos-IAPP. The data set is classed as binding. To be noted: for Kd: SD. The method, then:
Fluorescence spectros copic titrations
Fluorescence spectrosco pic titration studies w ere performed with a JASC O FP-6500 fluorescence spectrophotometer using a previously described experimental protocol.[1, 5, 7] Briefly, excitation was at 492 nm and emission spectra were recorded between 500 and 600 nm. The app arent (app.) Kds of the interactions of IAPP with LL-37 and its segments LL-37(1- 14) and LL-37(15- 37) were quantified by titrating synthetic N α-amino-terminal fluorescein labeled IAPP (5 nM) with various amounts of each of the peptides . For all exp eri ments , freshly made stocks of peptides and their fluorescently lab eled an alogs in HF IP wer e used. Measurements w er e performed in 10 mM sodium phosphate buffer (pH 7.4) containing 1% HFIP within 2-5 min following solution preparation at room temperature. Of note, under these conditions freshly made Fluos-IAPP (5 nM) solutions consist mostly of monomers.[1] App. Kds were calculated using 1/1 binding models as previously described and ar e means (± SD) of three binding curves.[1, 3, 5, 7]
Cross-linking, NuPAGE, and Western Blot analysis
Cross-linking studies were preformed using a previously developed assay system.[5] Briefly, solutions of IAPP alone (30 µM) and its mixtures with LL-37 or scrLL- 37 at the indicated molar ratios (IAPP/LL-37 at 1/1 or 1/0.1) wer e p repared in aqueous sodium phosphate buffer, pH 7.4,

Data set [2] has as its system cytotoxic IAPP assemblies on RIN5fm cells.
The subject of another data set is RIN5fm cells. To be noted: LL-37 alone, 7 days aged, 1 assay, n=3.
Data set [3] deals with T2, IAPP monomers and fibrils (Homo sapiens, UniProt P10997).
T2 construct: The 37‐residue IAPP is secreted from the β‐cells together with insulin; made in house; host or cells: chemical synthesis (Fmoc solid-phase synthesis on Rink resin)
T2 sequence (P10997 34-70 limits assumed): T1 sequence (P10997 34-70 limits assumed)
Put plainly: Dot blot binding to IAPP monomers and fibrils. To be noted: IAPP monomers and fibrils (40 µg) on nitrocellulose, FAM-LL-37 200 nM, overnight 10 °C; representative of 4 assays. The method, then: Solutions were cross-linked using 25% aqueous glutaraldehyde (Sigma-Aldrich) an d 10% aqueous trichloro acetic acid (TCA ) was […] buffer, boiled for 5 min, and subjected to NuPAGE electrophoresis in 4- 12% Bis-Tris gels with MES running buffer (Invitrogen). The s ame volume of each solution (same IAPP amount) was loaded in all l anes. Peptid es were blotted using a X Cell II Blot Module blotting system (Invitrogen ). IAPP or […] using a polyclonal rabbit anti-IAPP antibody (Peninsula) or a monoclonal mouse anti-LL- 37 antibody (Santa Cruz Biotechnology), resp ectively in combination with suitable peroxidase (POD)-coupled s econdary antibodies (Pierce & Am […] Super Signal West Dura Extended Duration Substrate (Pierce). Of note, previous studies provided evidence for the […] of th e cross-linking assay; in addition, no new bands were obs […]-37 (1/1) mixtures (data not shown).[5] Dot blot analysis IAPP monomers or IAPP fibrils (fIAPP) containin g solutions (different am ounts up to 40 μg) were spotted onto a nitrocellulose membrane. […] In addition, to control for t he interference of fibril autofluorescence, a membrane containing spotted f IA P P which had been incubated in buffer alone w/o FAM-LL-37 was included in each assay; in general, fIAPP autofluorescence contribute d up to 25% of the total amount of fluorescence observed in fIAPP bound toFAM -LL- 37. […]

Where [4] appears, read: Fluos-IAPP 5 nM, 10 mM sodium phosphate pH 7.4, 1% HFIP, room temperature, 1/1 binding model, mean (±SD) of three binding curves, read-out: app. Kd of interaction with Fluos-IAPP.

Read-outs that look alike come from different tables or passages of the source. Ends that are not written are not given here.

Consider `CC[C@H](C)[C@H](NC(=O)[C@H](CCCCN)NC(=O)[C@H](CCC(=O)O)NC(=O)[C@H](CCCCN)NC(=O)[C@H](CO)NC(=O)[C@H](CCCCN)NC(=O)[C@H](CCCNC(=N)N)NC(=O)[C@H](Cc1ccccc1)NC(=O)[C@H](Cc1ccccc1)NC(=O)[C@H](CC(=O)O)NC(=O)CNC(=O)[C@H](CC(C)C)NC(=O)[C@@H](N)CC(C)C)C(=O)NCC(=O)N[C@@H](CCCCN)C(=O)N[C@@H](CCC(=O)O)C(=O)N[C@@H](Cc1ccccc1)C(=O)N[C@@H](CCCCN)C(=O)N[C@@H](CCCNC(=N)N)C(=O)N[C@H](C(=O)N[C@H](C(=O)N[C@@H](CCC(N)=O)C(=O)N[C@@H](CCCNC(=N)N)C(=O)N[C@H](C(=O)N[C@@H](CCCCN)C(=O)N[C@@H](CC(=O)O)C(=O)N[C@@H](Cc1ccccc1)C(=O)N[C@@H](CC(C)C)C(=O)N[C@@H](CCCNC(=N)N)C(=O)N[C@@H](CC(N)=O)C(=O)N[C@@H](CC(C)C)C(=O)N[C@H](C(=O)N1CCC[C@H]1C(=O)N[C@@H](CCCNC(=N)N)C(=O)N[C@H](C(=O)N[C@@H](CCC(=O)O)C(=O)N[C@@H](CO)C(=O)O)[C@@H](C)O)C(C)C)[C@@H](C)CC)C(C)C)[C@@H](C)CC` [LL-37], for which the “increase in fluorescence emission of Fluos-IAPP” value in data set [1] (Fluos-IAPP 5 nM with 100-fold molar excess of LL-37, pH 7.4) stood at 322%. The molecule also yielded a Kd in data set [1] of 88.1 nM. In addition, the “effect on formation of cytotoxic IAPP assemblies (MTT reduction)” value in data set [2] is reported as “effectively suppressed”. In addition, half-maximal inhibition in data set [2] (rat, SD) (IC50) required 17 nM. The “cytotoxicity of peptide alone (MTT reduction)” value in the data set with RIN5fm cells is on record as “not cytotoxic”.
Consider “FAM-LL-37: N-terminal fluorescein-labeled LL-37 with 6-aminohexanoic acid spacer, from Anaspec”, for which the “binding to IAPP fibrils and monomers (dot blot)” value in data set [3] was “bound both IAPP fibrils and monomers”.
With KEFKRIVQRIKDFLRNLVPRTES [LL-37(15-37)], the Kd in data set [1] (setting [4]) stood at 31.9 nM.
As for LLGDFFRKSKEKIG [LL-37(1-14)], the Kd in data set [1] (setting [4]) worked out at 2540 nM.

Source of the values: paper PMC7497016, “The Human Host‐Defense Peptide Cathelicidin LL‐37 is a Nanomolar Inhibitor of Amyloid Self‐Assembly of Islet Amyloid Polypeptide (IAPP)” (Angewandte Chemie (International Ed. in English), 2020).
